Reference: patent publication US20080207751A1, “Sulindac Derivatives for Treatment of Cancer” (Sulfidris s.r.l., priority 2005, published 2008)
Where two headings read alike, the source gives them in different places.

Key:
Caco 2 cells = test: Anti-proliferative activity in Caco 2 cells; format: cell-based
Protocol: In order to analyze sulindac derivatives in combination therapies for treatment of colon cancer, the compound of example 4 was tested in Caco 2 cell lines comparatively with other known therapeutic agents at different concentrations.
The results of the treatment with 5-FU, celecoxib and docetaxel in Caco 2 cell are depicted in the Table 3 below reported.
In another experiment the compound of example 4 at IC50 concentration was incubated with submaximal concentrations of the anti-tumoral standard agents.

[1] = tested on: Aberrant crypt foci (ACF); test: Aberrant crypt foci (ACF) induced by 1,2-dimethylhydrazine in rats; format: in vivo; settings: DMH-induced ACF, Sprague-Dawley rats; equivalent anti-inflammatory doses, twice daily orogastric gavage for 3 weeks
Protocol: Aberrant crypt foci (ACF) were induced in Sprague-Dawley rats by using 1,2-dimethylhydrazine (DMH). Test agents or vehicle were then administered for 3 weeks, twice daily through orogastric gavage.
At the end of this period, the number and multiplicity of ACF were determined.

[2] = Five-day oral safety study in rats (deaths, gastrointestinal ulcers at autopsy); format: in vivo; settings: male rats, once daily by gavage for five days; sulindac sulfoxide 20 mg/kg, compound example 1 36 mg/kg
Protocol: Thirty male rats (150-200 g) were divided into three groups of 10 animals/group and treated with vehicle, sulindac sulfoxide (20 mg/kg) and the compound example 1 (36 mg/kg) for five days once daily by gavage.
At the fifth day survival animals were sacrificed 6 hr after the treatment by an overdose of ether, and autopsied to detect any pathological changes, particularly in the gastrointestinal tract.

**Q.** For `O=c1[nH]cc(F)c(=O)[nH]1` [Example 5-FU], which IC50 (Caco 2 cells) is on record?
**A.** The IC50 was 28 µM.

**Q.** With `CC1=C(CC(=O)Oc2ccc(-c3cc(=S)ss3)cc2)c2cc(F)ccc2/C1=C\c1ccc(S(C)(=O)=O)cc1` [Example 3, (Z)-5-Fluoro-2-methyl-1-[[4-(methylsulfone)phenyl]methylene]-1H-indene-3-acetic acid 4-(thioxo-5H-[1,2]dithiol-3-yl)-phenyl ester] as the molecule, how does the “reduction of the number of ACF” value [1] read?
**A.** Its value is 45%.

**Q.** Which results are given for `CC1=C(CC(=O)OCCSS(C)(=O)=O)c2cc(F)ccc2/C1=C\c1ccc([S+](C)[O-])cc1` (centres unmarked) [Example 4, (Z)-5-Fluoro-2-methyl-1-[[4-(methylsulfinyl)phenyl]methylene]-1H-indene-3-acetic acid 2-methanesulfonylsulfanylethyl ester]?
**A.** IC50 (Caco 2 cells; Homo sapiens): 55 µM; anti-proliferative activity in combination with anti-tumoral standard agents (Caco 2 cells; compound at IC50 concentration incubated with submaximal concentrations of standard agents): marked potentiation

**Q.** Which “reduction of the number of ACF” value [1] does the source give for `CC1=C(CC(=O)O)c2cc(F)ccc2/C1=C\c1ccc(S(C)(=O)=O)cc1` [sulindac sulfone, (Z)-5-Fluoro-2-methyl-1-[[4-(methylsulfone)phenyl]methylene]-1H-indene-3-acetic acid] here?
**A.** The value was 36%.

**Q.** With `CC(=O)O[C@@]12CO[C@@H]1C[C@H](O)[C@@]1(C)C(=O)[C@H](O)C3=C(C)[C@@H](OC(=O)[C@H](O)[C@@H](NC(=O)OC(C)(C)C)c4ccccc4)C[C@@](O)([C@@H](OC(=O)c4ccccc4)[C@H]21)C3(C)C` [Docetaxel] as the molecule, how does the IC50 (Caco 2 cells; Homo sapiens) read?
**A.** The IC50 was 0.005 µM.

**Q.** For `CC1=C(CC(=O)OCCSS(C)(=O)=O)c2cc(F)ccc2/C1=C\c1ccc(S(C)(=O)=O)cc1` [Example 8, (Z)-5-Fluoro-2-methyl-1-[[4-(methylsulfone)phenyl]methylene]-1H-indene-3-acetic acid 2-methanesulfonylsulfanylethyl ester], which “reduction of the number of ACF” value [1] is on record?
**A.** The value was 60%.

**Q.** For `CC1=C(CC(=O)Oc2ccc(-c3cc(=S)ss3)cc2)c2cc(F)ccc2/C1=C\c1ccc([S+](C)[O-])cc1` (centres unmarked) [Example 1, (Z)-5-Fluoro-2-methyl-1-[[4-(methylsulfinyl)phenyl]methylene]-1H-indene-3-acetic acid 4-(thioxo-5H-1-[1,2]dithiol-3-yl)-phenyl ester], which “% deaths” value [2] is on record?
**A.** Its value is 0%.

**Q.** And the “% gastrontestinal ulcers” value [2]?
**A.** Its value is 10%.

**Q.** Which “% deaths” value [2] does the source give for `CC1=C(CC(=O)O)c2cc(F)ccc2/C1=C\c1ccc([S+](C)[O-])cc1` (centres unmarked) [Sulindac sulfoxide, (Z)-5-Fluoro-2-methyl-1-[[4-(methylsulfinyl)phenyl]methylene]-1H-indene-3-acetic acid] here?
**A.** The value was 70%.

**Q.** And the “% gastrontestinal ulcers” value [2]?
**A.** Its value is 100%.

**Q.** What about the “reduction of the number of ACF” value [1] of the same molecule?
**A.** The value was 46%.

**Q.** With `Cc1ccc(-c2cc(C(F)(F)F)nn2-c2ccc(S(N)(=O)=O)cc2)cc1` [celecoxib] as the molecule, how does the IC50 (Caco 2 cells; Homo sapiens) read?
**A.** Its IC50 is 60 µM.

**Q.** What about the “reduction of the number of ACF” value [1] of the same molecule?
**A.** The value was 22%.
